Read-outs that look alike come from different tables or passages of the source. Blank lines part the entries; values can stand above or below the compound they belong to. Starred links: 1 amine or outer side, 2 acyl side, 3 side chain; linkers in the order of their positions; H or OH if unused. Positions of bridges follow the written chain, without caps; N, C: chain ends. Non-standard residues stand in square brackets, D forms with d. Residues, ends and D or L forms follow the SMILES beside them. *: point of attachment. NH(CH2)3NH(O2Oc(DOTA)) = O=C(O)CN1CCN(CC(=O)O)CCN(CC(=O)NCCOCCOCC(=O)NCCCN*)CCN(CC(=O)O)CC1; DOTA = O=C(O)CN1CCN(CC(=O)O)CCN(CC(=O)*)CCN(CC(=O)O)CC1; NGly(3-aminopropyl) = O=C(CN(CCCN[*:3])[*:1])[*:2]; mXylylene = c1cc(C[*:1])cc(C[*:2])c1; X49 = N#Cc1ccc(N2CCCN(*)CC2)c(F)c1; X2 = O=C(CN1CCC(N[*:1])CC1)[*:2]; X60 = NC(=O)c1ccc(N2CC(N*)C2)cc1; Pen = CC(C)(S)[C@H](N)C(=O)O; Propanoyl(3-OH) = O=C(CCO)*; 4Amb = NCc1ccc(C(=O)O)cc1; Orn = NCCC[C@H](N)C(=O)O; APAc = not defined here; Dab = NCC[C@H](N)C(=O)O; PhAc = O=C(Cc1ccccc1)*; Bn = c1ccc(C*)cc1; Sar = CNCC(=O)O
Target: T1, CAIX-expressing human HT-29 colorectal cancer cells (Homo sapiens, UniProt Q16790)
T1 construct: CAIX-expressing human HT-29 colorectal cancer cells; host or cells: HT-29 human colorectal cancer cells
Experiment: FACS binding assay (IC50 determination, competition with tracer 3BP-2776 or 3BP-4149)
In short: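 HT-29 cells in FACS buffer (PBS, 1% FCS) at 500.000 cells/ml were exposed to compounds competing with a labelled tracer, with biotinylated compounds detected by 1 μg/mL APC-streptavidin for 30 min on ice. APC/Cy5 median fluorescence was read by flow cytometry and IC50 derived by 4PL fit.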

[1] = FACS binding assay, HT-29 cells, competition with tracer 3BP-2776 (10 nM, biotin-labeled), 4° C., 1 hour, read-out: pIC50 category (activity) (converted)
[2] = FACS competition on HT-29 cells, Tracer ID 3BP-2776 (10 nM, biotin-labeled), 4° C., 1 hour, read-out: pIC50 category (activity) (converted)
[3] = FACS binding assay, HT-29 cells, competition with tracer 3BP-4149 (3 nM, Cy5-labeled), 4° C., 1 hour, read-out: pIC50 category (activity) (converted)

IC50 [1]: < 10 nM
Compound: CC(=O)N[C@H](C(=O)N[C@@H](Cc1ccc(O)cc1)C(=O)N[C@H]1CSCc2cccc(c2)CSC[C@@H](C(N)=O)NC(=O)[C@H](CO)NC(=O)[C@H](Cc2c[nH]c3ccccc23)NC(=O)[C@@H]2CC(=O)NCCC[C@H](NC(=O)[C@H]3CCCN3C(=O)[C@H](CCC(=O)O)NC1=O)C(=O)N[C@@H](Cc1c[nH]c3ccccc13)C(=O)N[C@@H](CC(C)C)C(=O)N2)C(C)C [3BP-4005] (Ac-VYCE[dP][Orn]WLDWSC-NH2; linker 3-12 via mXylylene; lactam 6-9)

IC50 [2]: < 10 nM
Compound: CC(=O)N[C@H](C(=O)N[C@@H](Cc1ccc(O)cc1)C(=O)N[C@H]1CSCc2cccc(c2)CSC[C@@H](C(N)=O)NC(=O)CNC(=O)[C@H](Cc2c[nH]c3ccccc23)NC(=O)[C@H]([C@@H](C)O)NC(=O)[C@H](CC(C)C)NC(=O)[C@H](Cc2c[nH]c3ccccc23)NC(=O)[C@H](CC(=O)O)NC(=O)CN(C)C(=O)[C@H](CCC(=O)O)NC1=O)C(C)C [3BP-3304] (Ac-VYCE[Sar]DWLTWGC-NH2; linker 3-12 via mXylylene)

IC50 [1]: 100 to 794 nM
Compound: CC(=O)N[C@H](C(=O)N[C@@H](Cc1ccc(O)cc1)C(=O)N[C@H]1CSCc2cccc(c2)CSC[C@@H](C(N)=O)NC(=O)[C@H](CO)NC(=O)[C@H](Cc2c[nH]c3ccccc23)NC(=O)[C@@H]2CC(=O)NCC[C@H](NC(=O)[C@H]3CCCN3C(=O)[C@H](CCC(=O)O)NC1=O)C(=O)N[C@@H](Cc1c[nH]c3ccccc13)C(=O)N[C@@H](CC(C)C)C(=O)N2)C(C)C [3BP-4050] (Ac-VYCE[dP][Dab]WLDWSC-NH2; linker 3-12 via mXylylene; lactam 6-9)

IC50 [3]: 10 to 79.4 nM
Compound: CC(C)C[C@@H]1NC(=O)[C@H](Cc2c[nH]c3ccccc23)NC(=O)[C@H](CCC(=O)NC2CN(c3ccc(C(N)=O)cc3)C2)NC(=O)[C@H]2CCCN2C(=O)[C@H](CCC(=O)O)NC(=O)[C@@H](NC(=O)[C@H](Cc2ccc(O)cc2)NC(=O)[C@@H](NC(=O)CN2CCC(NC(=O)CN3CCN(CC(=O)O)CCN(CC(=O)O)CCN(CC(=O)O)CC3)CC2)C(C)C)CSCc2cccc(c2)CSC[C@@H](C(N)=O)NC(=O)[C@H](CO)NC(=O)[C@H](Cc2c[nH]c3ccccc23)NC(=O)[C@H]([C@@H](C)O)NC1=O [3BP-4388] ({DOTA}-[X2]VYCE[dP]E(X60)WLTWSC-NH2; linker 4-13 via mXylylene)

Compound: CC(=O)N[C@H](C(=O)N[C@@H](Cc1ccc(O)cc1)C(=O)N[C@H]1CSCc2cccc(c2)CSC[C@@H](C(N)=O)NC(=O)[C@H](CCC(N)=O)NC(=O)[C@H](Cc2c[nH]c3ccccc23)NC(=O)[C@H]([C@@H](C)O)NC(=O)[C@H](CC(C)C)NC(=O)[C@H](Cc2c[nH]c3ccccc23)NC(=O)[C@H](CC(=O)O)NC(=O)[C@@H](C)NC(=O)[C@H](CCC(=O)O)NC1=O)C(C)C [3BP-3046] (Ac-VYCE[dA]DWLTWQC-NH2; linker 3-12 via mXylylene)
IC50 [2]: < 10 nM

Compound: CC(C)C[C@@H]1NC(=O)[C@H](Cc2ccc(OCc3ccccc3)cc2)NC(=O)[C@H](CC(=O)O)NC(=O)[C@H]2CCCN2C(=O)[C@H](CCC(=O)O)NC(=O)[C@@H](NC(=O)[C@H](Cc2ccc(O)cc2)NC(=O)[C@@H](NC(=O)CN2CCC(NC(=O)CN3CCN(CC(=O)O)CCN(CC(=O)O)CCN(CC(=O)O)CC3)CC2)C(C)C)CSCc2cccc(c2)CSC[C@@H](C(N)=O)NC(=O)[C@H](CO)NC(=O)[C@H](Cc2c[nH]c3ccccc23)NC(=O)[C@H]([C@@H](C)O)NC1=O [3BP-4137] ({DOTA}-[X2]VYCE[dP]DY(Bn)LTWSC-NH2; linker 4-13 via mXylylene)
IC50: 10 to 79.4 nM

IC50 [2]: < 10 nM
Compound: CC(=O)N[C@H](C(=O)N[C@@H](Cc1ccc(O)cc1)C(=O)N[C@H]1CSCc2cccc(c2)CSC[C@@H](C(N)=O)NC(=O)[C@H](CCC(=O)NCCCNC(=O)COCCOCCNC(=O)CN2CCN(CC(=O)O)CCN(CC(=O)O)CCN(CC(=O)O)CC2)NC(=O)[C@H](Cc2c[nH]c3ccccc23)NC(=O)[C@H]([C@@H](C)O)NC(=O)[C@H](CC(C)C)NC(=O)[C@H](Cc2c[nH]c3ccccc23)NC(=O)[C@H](CC(=O)O)NC(=O)[C@H]2CCCN2C(=O)[C@H](CCC(=O)O)NC1=O)C(C)C [3BP-3479] (Ac-VYCE[dP]DWLTWE(NH(CH2)3NH(O2Oc(DOTA)))C-NH2; linker 3-12 via mXylylene)

IC50 [2]: < 10 nM
Compound: CC(=O)N[C@H](C(=O)N[C@@H](Cc1ccc(O)cc1)C(=O)N[C@H]1CSCc2cccc(c2)CSC(C)(C)[C@@H](C(N)=O)NC(=O)[C@H](C)NC(=O)[C@H](Cc2c[nH]c3ccccc23)NC(=O)[C@H]([C@@H](C)O)NC(=O)[C@H](CC(C)C)NC(=O)[C@H](Cc2c[nH]c3ccccc23)NC(=O)[C@H](CC(=O)O)NC(=O)[C@H]2CCCN2C(=O)[C@H](CCC(=O)O)NC1=O)C(C)C [3BP-3492] (Ac-VYCE[dP]DWLTWA[Pen]-NH2; linker 3-12 via mXylylene)

IC50 [1]: < 10 nM
Compound: CC(C)C[C@@H]1NC(=O)[C@H](CSCc2ccccc2)NC(=O)[C@H](CC(=O)O)NC(=O)[C@H]2CCCN2C(=O)[C@H](CCC(=O)O)NC(=O)[C@@H](NC(=O)[C@H](Cc2ccc(O)cc2)NC(=O)[C@@H](NC(=O)CN2CCC(NC(=O)CN3CCN(CC(=O)O)CCN(CC(=O)O)CCN(CC(=O)O)CC3)CC2)C(C)C)CSCc2cccc(c2)CSC[C@@H](C(N)=O)NC(=O)[C@H](CO)NC(=O)[C@H](Cc2c[nH]c3ccccc23)NC(=O)[C@H]([C@@H](C)O)NC1=O [3BP-4130] ({DOTA}-[X2]VYCE[dP]DC(Bn)LTWSC-NH2; linker 4-13 via mXylylene)

IC50 [2]: < 10 nM
Compound: CC(C)C[C@@H]1NC(=O)[C@H](Cc2c[nH]c3ccccc23)NC(=O)[C@H](CC(=O)O)NC(=O)[C@H]2CCCN2C(=O)[C@H](CCC(=O)O)NC(=O)[C@@H](NC(=O)[C@H](Cc2ccc(O)cc2)NC(=O)CCO)CSCc2cccc(c2)CSC[C@@H](C(N)=O)NC(=O)[C@H](CO)NC(=O)[C@H](Cc2c[nH]c3ccccc23)NC(=O)[C@H]([C@@H](C)O)NC1=O [3BP-3730] ({Propanoyl(3-OH)}-YCE[dP]DWLTWSC-NH2; linker 2-11 via mXylylene)

Compound: CC(C)C[C@@H]1NC(=O)[C@H](Cc2c[nH]c3ccccc23)NC(=O)[C@H](Cc2ccc(OCc3ccccc3)cc2)NC(=O)[C@H]2CCCN2C(=O)[C@H](CCC(=O)O)NC(=O)[C@@H](NC(=O)[C@H](Cc2ccc(O)cc2)NC(=O)[C@@H](NC(=O)CN2CCC(NC(=O)CN3CCN(CC(=O)O)CCN(CC(=O)O)CCN(CC(=O)O)CC3)CC2)C(C)C)CSCc2cccc(c2)CSC[C@@H](C(N)=O)NC(=O)[C@H](CO)NC(=O)[C@H](Cc2c[nH]c3ccccc23)NC(=O)[C@H]([C@@H](C)O)NC1=O [3BP-4127] ({DOTA}-[X2]VYCE[dP]Y(Bn)WLTWSC-NH2; linker 4-13 via mXylylene)
IC50: < 10 nM

IC50 [2]: < 10 nM
Compound: CC(=O)N[C@@H](CO)C(=O)N[C@@H](CCCNC(=N)N)C(=O)N[C@H]1CSCc2cccc(c2)CSC[C@@H](C(N)=O)NC(=O)[C@H](CCC(=O)NCCCNC(=O)COCCOCCNC(=O)CN2CCN(CC(=O)O)CCN(CC(=O)O)CCN(CC(=O)O)CC2)NC(=O)[C@H](Cc2c[nH]c3ccccc23)NC(=O)[C@H]([C@@H](C)O)NC(=O)[C@H](CC(C)C)NC(=O)[C@H](Cc2c[nH]c3ccccc23)NC(=O)[C@H](CC(=O)O)NC(=O)[C@H]2CCCN2C(=O)[C@H](CCC(=O)O)NC1=O [3BP-3735] (Ac-SRCE[dP]DWLTWE(NH(CH2)3NH(O2Oc(DOTA)))C-NH2; linker 3-12 via mXylylene)

IC50 [3]: 10 to 79.4 nM
Compound: CC(C)C[C@@H]1NC(=O)[C@H](Cc2c[nH]c3ccccc23)NC(=O)[C@H](CCC(=O)N2CCCN(c3ccc(C#N)cc3F)CC2)NC(=O)[C@H]2CCCN2C(=O)[C@H](CCC(=O)O)NC(=O)[C@@H](NC(=O)[C@H](Cc2ccc(O)cc2)NC(=O)[C@@H](NC(=O)CN2CCC(NC(=O)CN3CCN(CC(=O)O)CCN(CC(=O)O)CCN(CC(=O)O)CC3)CC2)C(C)C)CSCc2cccc(c2)CSC[C@@H](C(N)=O)NC(=O)[C@H](CO)NC(=O)[C@H](Cc2c[nH]c3ccccc23)NC(=O)[C@H]([C@@H](C)O)NC1=O [3BP-4389] ({DOTA}-[X2]VYCE[dP]E(X49)WLTWSC-NH2; linker 4-13 via mXylylene)

Compound: CC(C)C[C@@H]1NC(=O)[C@H](Cc2c[nH]c3ccccc23)NC(=O)[C@H](CC(=O)O)NC(=O)CNC(=O)[C@H](CCC(=O)O)NC(=O)[C@@H](NC(=O)[C@H](Cc2ccc(O)cc2)NC(=O)[C@@H](NC(=O)Cc2ccccc2)C(C)C)CSCc2cccc(c2)CSC[C@@H](C(N)=O)NC(=O)[C@H](CCC(N)=O)NC(=O)[C@H](Cc2c[nH]c3ccccc23)NC(=O)[C@H]([C@@H](C)O)NC1=O [3BP-3109] (PhAc-VYCEGDWLTWQC-NH2; linker 3-12 via mXylylene)
IC50: < 10 nM

IC50 [2]: < 10 nM
Compound: CC(=O)N[C@H](C(=O)N[C@@H](Cc1ccc(O)cc1)C(=O)N[C@H]1CSCc2cccc(c2)CSC[C@@H](C(=O)NCc2ccc(C(=O)N[C@@H](CCCCNC(=O)CN3CCN(CC(=O)O)CCN(CC(=O)O)CCN(CC(=O)O)CC3)C(N)=O)cc2)NC(=O)[C@H](C)NC(=O)[C@H](Cc2c[nH]c3ccccc23)NC(=O)[C@H]([C@@H](C)O)NC(=O)[C@H](CC(C)C)NC(=O)[C@H](Cc2c[nH]c3ccccc23)NC(=O)[C@H](CC(=O)O)NC(=O)[C@H]2CCCN2C(=O)[C@H](CCC(=O)O)NC1=O)C(C)C [3BP-3477] (Ac-VYCE[dP]DWLTWAC[4Amb]K(DOTA)-NH2; linker 3-12 via mXylylene)

pIC50 category (activity) (FACS binding assay, HT-29 cells, competition with tracer 3BP-2776 (10 nM, biotin-labeled), 4° C., 1 hour): B (pIC50 values between 7.1 and 8.0)
Compound: 3BP-4252 ({DOTA-APAc}-VYCEG[NGly(3-aminopropyl)]WLEWSC-NH2; linker 3-12 via mXylylene; lactam 6-9; reading uncertain)
